# Patent US20260224658A1, “PRODUCTS AND METHODS FOR THE DIAGNOSIS AND TREATMENT OF P[…]” (priority 2023, published 2026)
# What was measured:
# Assay type in all cases: cell-based, Pseudomonas aeruginosa
# MPAO1 [1] = test: microbe, parasite or virus in culture; conditions: strain MPAO1; for MIC: Pseudomonas aeruginosa, read-out: MIC, average of triplicates
# Protocol: (§1) MIC experiments were performed using biological triplicates.
# PAO1 = test: microbe, parasite or virus in culture; conditions: strain PAO1; for MIC: Pseudomonas aeruginosa, read-out: MIC, average of triplicates
# Protocol: as §1
# MPAO1-ΔmutS [2] = test: MIC, microbroth dilution assay; conditions: for MIC: Pseudomonas aeruginosa, read-out: MIC, average of triplicates
# Protocol: as §1
# MPAO1-ΔmutL [3] = test: MIC, microbroth dilution assay; conditions: for MIC: Pseudomonas aeruginosa, read-out: MIC, average of triplicates
# Protocol: as §1
# MPAO1-ΔmutS [4] = test: In vitro adaptive evolution (serial passaging) with MIC determination; conditions: for MIC: Pseudomonas aeruginosa
# Protocol: (§2) MICs were determined via microbroth dilution assay in 96-well culture plates with 2-fold serial dilutions of tested antibiotic in Mueller-Hinton (cation-adjusted) broth, inoculated with 50 μL of 2.75×10^5 CFU/mL of each bacterial strain and incubated at 37° C., 200 rpm for 24 hours. MIC experiments were performed using biological triplicates.
# (§3) Serial passaging of bacterial strains was performed in 96-well culture plates with 2-fold serial dilutions of antibiotic in MH broth, inoculated with 50 μL 2.75×10^5 CFU/mL of each strain and incubated at 37° C., 200 rpm for 24 hours. […] The bacteria were then serially passaged in the same antibiotic and MIC determined for all antibiotics (aztreonam, ciprofloxacin, D-CONGA, D-CONGA-Q7, polymyxin B). See Antimicrobial susceptibility testing section. The bacteria were serially passaged a total of 10 times.
# (§4) All resistance acquisition data was analyzed in units of fold-change to normalize for differences in starting MIC across strains. Fold-change in MIC data for all strains and treatment groups was natural log-transformed and simple linear regression was performed considering each replicate fold-change value as an individual point. Slope, standard error of slope, and total number of values of each treatment group of interest were analyzed via unpaired t-test (ΔmutS vs WT) or ordinary one-way ANOVA (cross-resistance acquisition of ΔmutS+AB vs −AB vs WT), and α-values were corrected for multiple comparisons using the Bonferroni method. Differences in estimated mutation rate across treatment groups were determined via ordinary one-way ANOVA (Brown-Forsythe test). For all statistical tests, p<0.05 was considered significant. All figures were created and statistical tests were done using GraphPad Prism 9.3.1.
# MPAO1 [5] = test: as above; conditions: for MIC: Pseudomonas aeruginosa
# Protocol: as §2, §3, §4
# MPAO1-ΔmutL [6] = test: as above; conditions: for MIC: Pseudomonas aeruginosa
# Protocol: as §2, §3, §4
# [7] = read-out: Average MIC at end point, MPAO1-ΔmutS evolved in AZ
# [8] = read-out: Average MIC at end point, MPAO1-ΔmutS evolved in AZ + COL
# [9] = read-out: Average MIC at end point, MPAO1-ΔmutS evolved in AZ + D-CONGA
# [10] = read-out: Average MIC at end point, MPAO1-ΔmutS evolved in AZ + D-CONGA-Q7
# [11] = read-out: Average MIC at end point, MPAO1-ΔmutS evolved in Chl
# [12] = read-out: Average MIC at end point, MPAO1 evolved in AZ
# [13] = read-out: Average MIC at end point, MPAO1 evolved in AZ + COL
# [14] = read-out: Average MIC at end point, MPAO1 evolved in AZ + D-CONGA
# [15] = read-out: Average MIC at end point, MPAO1 evolved in AZ + D-CONGA-Q7
# [16] = read-out: Average MIC at end point, MPAO1 evolved in Chl + Str
# [17] = read-out: Average MIC at end point, MPAO1 evolved in D-CONGA
# [18] = read-out: Average MIC at end point, MPAO1 evolved in D-CONGA-Q7
# [19] = read-out: Average MIC at end point, MPAO1 passaged with No Antibiotic (Table 4)
# [20] = read-out: Average MIC at end point, MPAO1 passaged with No Antibiotic (Table 8)
# [21] = MPAO1-ΔmutS evolved in AZ + COL
# [22] = MPAO1-ΔmutS evolved in AZ + D-CONGA
# [23] = MPAO1-ΔmutS evolved in AZ + D-CONGA-Q7
# [24] = MPAO1-ΔmutS evolved in D-CONGA-Q7
# [25] = MPAO1-ΔmutS passaged with No Antibiotic (Table 4)
# [26] = MPAO1-ΔmutS passaged with No Antibiotic (Table 8)
# [27] = MPAO1 evolved in AZ + D-CONGA-Q7
# [28] = MPAO1 passaged with No Antibiotic (Table 4)
# [29] = MPAO1 passaged with No Antibiotic (Table 8)
# [30] = MPAO1-ΔmutL evolved in Chl + Str
# [31] = MPAO1-ΔmutL passaged with No Antibiotic
compound,measurement,setting,value
C[C@H]1[C@H](NC(=O)/C(=N\OC(C)(C)C(=O)O)c2csc(N)n2)C(=O)N1S(=O)(=O)O [Aztreonam],MIC,MPAO1 [1],2 µg/mL
same,MIC,PAO1,3 µg/mL
same,MIC,MPAO1-ΔmutS [2],13 µg/mL
same,MIC,MPAO1-ΔmutL [3],30 µg/mL
same,MIC,MPAO1-ΔmutS [4]; [7],107 µg/mL
same,MIC,MPAO1-ΔmutS [4]; [8],16 µg/mL
same,MIC,MPAO1-ΔmutS [4]; [9],18 µg/mL
same,MIC,MPAO1-ΔmutS [4]; [10],16 µg/mL
same,MIC,MPAO1-ΔmutS [4]; [11],32 µg/mL
same,MIC,"MPAO1-ΔmutS [4]; read-out: Average MIC at end point, MPAO1-ΔmutS evolved in D-CONGA",16 µg/mL
same,MIC,"MPAO1-ΔmutS [4]; read-out: Average MIC at end point, MPAO1-ΔmutS evolved in D-CONGA-Q7",4 µg/mL
same,MIC,"MPAO1-ΔmutS [4]; read-out: Average MIC at end point, MPAO1-ΔmutS passaged with No Antibiotic (Table 4)",8 µg/mL
same,MIC,"MPAO1-ΔmutS [4]; read-out: Average MIC at end point, MPAO1-ΔmutS passaged with No Antibiotic (Table 8)",5 µg/mL
same,MIC,MPAO1 [5]; [12],8 µg/mL
same,MIC,MPAO1 [5]; [13],19 µg/mL
same,MIC,MPAO1 [5]; [14],11 µg/mL
same,MIC,MPAO1 [5]; [15],4 µg/mL
same,MIC,MPAO1 [5]; [16],3 µg/mL
same,MIC,MPAO1 [5]; [17],7 µg/mL
same,MIC,MPAO1 [5]; [18],7 µg/mL
same,MIC,MPAO1 [5]; [19],3 µg/mL
same,MIC,MPAO1 [5]; [20],4 µg/mL
same,MIC,"MPAO1-ΔmutL [6]; read-out: Average MIC at end point, MPAO1-ΔmutL evolved in Chl + Str",32 µg/mL
same,MIC,"MPAO1-ΔmutL [6]; read-out: Average MIC at end point, MPAO1-ΔmutL passaged with No Antibiotic",11 µg/mL
O=C(N[C@H](CO)[C@H](O)c1ccc([N+](=O)[O-])cc1)C(Cl)Cl [Chloramphenicol],MIC,MPAO1 [1],≥ 400 µg/mL
same,MIC,PAO1,400 µg/mL
same,MIC,MPAO1-ΔmutS [2],≥ 400 µg/mL
same,susceptibility of the strains before evolution (summary of Table 3),MPAO1-ΔmutS [2]; wild type and mutS-deficient MPAO1,anticipated intrinsic resistance
same,MIC,MPAO1-ΔmutL [3],400 µg/mL
same,cross-resistance to antibiotics induced by treatment,MPAO1-ΔmutS [4]; MPAO1-ΔmutS evolved in the named drug,induced cross-resistance to antibiotics in a different class such as ciprofloxacin
same,cross-resistance induced by treatment,MPAO1 [5]; antibiotic-treated wild type MPAO1,no cross resistance developed
O=C(O)c1cn(C2CC2)c2cc(N3CCNCC3)c(F)cc2c1=O [Ciprofloxacin],MIC,MPAO1 [1],0.5 µg/mL
same,MIC,PAO1,0.25 µg/mL
same,MIC,MPAO1-ΔmutS [2],1 µg/mL
same,MIC,MPAO1-ΔmutL [3],0.3 µg/mL
same,MIC,MPAO1-ΔmutS [4]; [7],4 µg/mL
same,MIC,MPAO1-ΔmutS [4]; [8],2 µg/mL
same,MIC,MPAO1-ΔmutS [4]; [9],0.8 µg/mL
same,MIC,MPAO1-ΔmutS [4]; [10],0.7 µg/mL
same,MIC,MPAO1-ΔmutS [4]; [11],8 µg/mL
same,MIC,MPAO1 [5]; [12],0.25 µg/mL
same,MIC,MPAO1 [5]; [13],2 µg/mL
same,MIC,MPAO1 [5]; [14],0.7 µg/mL
same,MIC,MPAO1 [5]; [15],0.8 µg/mL
same,MIC,"MPAO1 [5]; read-out: Average MIC at end point, MPAO1 evolved in COL",2 µg/mL
same,MIC,"MPAO1 [5]; read-out: Average MIC at end point, MPAO1 evolved in Chl",1 µg/mL
same,MIC,MPAO1 [5]; [16],2 µg/mL
same,MIC,MPAO1 [5]; [17],1 µg/mL
same,MIC,MPAO1 [5]; [18],0.75 µg/mL
same,MIC,MPAO1 [5]; [19],2 µg/mL
same,MIC,MPAO1 [5]; [20],0.8 µg/mL
[H]/N=C(/N)N[C@H]1[C@H](O)[C@@H](O)[C@H](O[C@@H]2O[C@@H](C)[C@](O)(C=O)[C@H]2O[C@@H]2O[C@@H](CO)[C@H](O)[C@@H](O)[C@@H]2NC)[C@@H](N/C(N)=N\[H])[C@@H]1O [Streptomycin],MIC,MPAO1 [1],8 µg/mL
same,MIC,PAO1,21 µg/mL
same,MIC,MPAO1-ΔmutS [2],32 µg/mL
same,MIC,MPAO1-ΔmutL [3],43 µg/mL
Polymyxin B,"MIC, average of triplicates",MPAO1 [1],2 µg/mL
same,"MIC, average of triplicates",PAO1,2 µg/mL
same,"MIC, average of triplicates",MPAO1-ΔmutS [2]; strain ΔmutS,2 µg/mL
same,"MIC, average of triplicates",MPAO1-ΔmutL [3]; strain ΔmutL,3 µg/mL
same,Average MIC at end point,MPAO1-ΔmutS [4]; MPAO1-ΔmutS evolved in AZ,2 µg/mL
same,fold-change relative to starting MIC before treatment,MPAO1-ΔmutS [4]; MPAO1-ΔmutS evolved in AZ,1
same,Average MIC at end point,MPAO1-ΔmutS [4]; [21],2 µg/mL
same,fold-change relative to starting MIC before treatment,MPAO1-ΔmutS [4]; [21],1
same,Average MIC at end point,MPAO1-ΔmutS [4]; [22],2 µg/mL
same,fold-change relative to starting MIC before treatment,MPAO1-ΔmutS [4]; [22],1
same,Average MIC at end point,MPAO1-ΔmutS [4]; [23],2 µg/mL
same,fold-change relative to starting MIC before treatment,MPAO1-ΔmutS [4]; [23],1
same,Average MIC at end point,MPAO1-ΔmutS [4]; MPAO1-ΔmutS evolved in COL,27 µg/mL
same,fold-change relative to starting MIC before treatment,MPAO1-ΔmutS [4]; MPAO1-ΔmutS evolved in COL,8
same,Average MIC at end point,MPAO1-ΔmutS [4]; MPAO1-ΔmutS evolved in Chl,2 µg/mL
same,fold-change relative to starting MIC before treatment,MPAO1-ΔmutS [4]; MPAO1-ΔmutS evolved in Chl,1
same,Average MIC at end point,MPAO1-ΔmutS [4]; MPAO1-ΔmutS evolved in D-CONGA,3 µg/mL
same,fold-change relative to starting MIC before treatment,MPAO1-ΔmutS [4]; MPAO1-ΔmutS evolved in D-CONGA,1.33
same,Average MIC at end point,MPAO1-ΔmutS [4]; [24],4 µg/mL
same,fold-change relative to starting MIC before treatment,MPAO1-ΔmutS [4]; [24],2
same,Average MIC at end point,MPAO1-ΔmutS [4]; [25],2 µg/mL
same,fold-change relative to starting MIC before treatment,MPAO1-ΔmutS [4]; [25],1
same,Average MIC at end point,MPAO1-ΔmutS [4]; [26],2 µg/mL
same,fold-change relative to starting MIC before treatment,MPAO1-ΔmutS [4]; [26],1
same,Average MIC at end point,MPAO1 [5]; MPAO1 evolved in AZ,3 µg/mL
same,fold-change relative to starting MIC before treatment,MPAO1 [5]; MPAO1 evolved in AZ,1.3
same,Average MIC at end point,MPAO1 [5]; MPAO1 evolved in AZ + COL,2 µg/mL
same,fold-change relative to starting MIC before treatment,MPAO1 [5]; MPAO1 evolved in AZ + COL,1
same,Average MIC at end point,MPAO1 [5]; MPAO1 evolved in AZ + D-CONGA,2 µg/mL
same,fold-change relative to starting MIC before treatment,MPAO1 [5]; MPAO1 evolved in AZ + D-CONGA,1
same,Average MIC at end point,MPAO1 [5]; [27],2 µg/mL
same,fold-change relative to starting MIC before treatment,MPAO1 [5]; [27],1
same,Average MIC at end point,MPAO1 [5]; MPAO1 evolved in COL,2 µg/mL
same,fold-change relative to starting MIC before treatment,MPAO1 [5]; MPAO1 evolved in COL,1
same,Average MIC at end point,MPAO1 [5]; MPAO1 evolved in Chl,2 µg/mL
same,fold-change relative to starting MIC before treatment,MPAO1 [5]; MPAO1 evolved in Chl,1
same,Average MIC at end point,MPAO1 [5]; MPAO1 evolved in D-CONGA,4 µg/mL
same,fold-change relative to starting MIC before treatment,MPAO1 [5]; MPAO1 evolved in D-CONGA,2.4
same,Average MIC at end point,MPAO1 [5]; MPAO1 evolved in D-CONGA-Q7,2 µg/mL
same,fold-change relative to starting MIC before treatment,MPAO1 [5]; MPAO1 evolved in D-CONGA-Q7,1
same,Average MIC at end point,MPAO1 [5]; [28],1 (1) μg/mL
same,fold-change relative to starting MIC before treatment,MPAO1 [5]; [28],1 (1)
same,Average MIC at end point,MPAO1 [5]; [29],2 µg/mL
same,fold-change relative to starting MIC before treatment,MPAO1 [5]; [29],1
same,Average MIC at end point,MPAO1-ΔmutL [6]; [30],0.5 µg/mL
same,fold-change relative to starting MIC before treatment,MPAO1-ΔmutL [6]; [30],0.25
same,Average MIC at end point,MPAO1-ΔmutL [6]; [31],2 µg/mL
same,fold-change relative to starting MIC before treatment,MPAO1-ΔmutL [6]; [31],0.6
